Here are results for 26 compounds from patent US11242350B2, “Spirocyclic ROR-gamma modulators” (Escalier Biosciences B.V., priority 2018, dated 2022).

A word on the IC50: it is the concentration that gives 50% inhibition.

The structures appear in SMILES notation. A value given as a limit tells only on which side of the number the result lay.

Chain of RORγt (P51449 269-508): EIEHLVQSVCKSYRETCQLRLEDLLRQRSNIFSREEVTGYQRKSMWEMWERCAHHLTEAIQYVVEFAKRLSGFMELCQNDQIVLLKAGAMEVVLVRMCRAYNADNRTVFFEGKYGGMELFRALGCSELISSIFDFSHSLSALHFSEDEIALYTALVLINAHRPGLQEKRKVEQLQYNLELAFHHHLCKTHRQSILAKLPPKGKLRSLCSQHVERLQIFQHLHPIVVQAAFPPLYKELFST

The target in this assay is RORγt (Homo sapiens (Human), UniProt P51449). Nature of the assay: Gal4 ligand binding assay (RORγt Gal fusion luciferase reporter assay in HEK293T cells). The format is cell-based. The settings on record: RORγt inverse agonists in RORγt Gal fusion assay. The procedure, abridged:
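Stable HEK293T line expressing the receptor fused to the Gal4 DBD, with a Gal4 UAS-driven luciferase; constitutively active, so agonism and inverse agonism both register. 10-point 1:3 titrations, 60 μM to 3 nM as prepared in media (added as 2×), 0.2% final DMSO; 24 h at 37 °C. Luminescence normalised to vehicle-only wells.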
In general terms: A reporter such as luciferase makes a cellular process visible.
In turn, `CCc1c(F)c(CN2CC3(C2)CN(S(C)(=O)=O)C3)cc(F)c1-c1ccc(C(O)(C(F)(F)F)C(F)(F)F)cc1` [Example 69, 2-(2′-ethyl-3′,6′-difluoro-4′-((6-(methylsulfonyl)-2,6-diazaspiro[3.3]heptan-2-yl)methyl)-[1,1′-biphenyl]-4-yl)-1,1,1,3,3,3-hexafluoropropan-2-ol] registered an IC50 below 50 nM.

On to `CS(=O)(=O)N1CC2(CN(Cc3cc(F)c(-c4ccc(C(O)(C(F)(F)F)C(F)(F)F)cc4)c(C4CC4)c3F)C2)C1` [Example 88, 2-(2′-cyclopropyl-3′,6′-difluoro-4′-((6-(methylsulfonyl)-2,6-diazaspiro[3.3]heptan-2-yl)methyl)-[1,1′-biphenyl]-4-yl)-1,1,1,3,3,3-hexafluoropropan-2-ol], for which the IC50 was below 50 nM.

On to `CCc1c(F)c(CN2CC3(C2)CN(S(C)(=O)=O)C3)cc(F)c1-c1ccc(C(O)(C(F)(F)F)C(F)(F)F)cc1F` [Example 70, 2-(2′-ethyl-2,3′,6′-trifluoro-4′-((6-(methylsulfonyl)-2,6-diazaspiro[3.3]heptan-2-yl)methyl)-[1,1′-biphenyl]-4-yl)-1,1,1,3,3,3-hexafluoropropan-2-ol], for which the IC50 was below 50 nM.

For `CCc1cc(CN2CC3(C2)CN(S(C)(=O)=O)C3)c(F)cc1-c1ccc(C(O)(C(F)(F)F)C(F)(F)F)cc1` [Example 36, 2-(2′-ethyl-5′-fluoro-4′-((6-(methylsulfonyl)-2,6-diazaspiro[3.3]heptan-2-yl)methyl)-[1,1′-biphenyl]-4-yl)-1,1,1,3,3,3-hexafluoropropan-2-ol], the IC50 was below 50 nM.

With `CCc1cc(CN2CCC3(C2)CS(=O)(=O)C3)ccc1-c1ccc(C(O)(C(F)(F)F)C(F)(F)F)cc1C` [Example 16, 6-((2-ethyl-4′-(1,1,1,3,3,3-hexafluoro-2-hydroxypropan-2-yl)-2′-methyl-[1,1′-biphenyl]-4-yl)methyl)-2-thia-6-azaspiro[3.4]octane 2,2-dioxide], the half-maximal inhibitory concentration (IC50) is below 50 nM.

Turning to `CCc1cc(CN2CC(CN(C)S(C)(=O)=O)C2)ccc1-c1ccc(C(O)(C(F)(F)F)C(F)(F)F)cc1` [Example 29, N-((1-((2-ethyl-4′-(1,1,1,3,3,3-hexafluoro-2-hydroxypropan-2-yl)-[1,1′-biphenyl]-4-yl)methyl)azetidin-3-yl)methyl)-N-methylmethanesulfonamide], the IC50 was above 250 nM.

For the compound `CCc1cc(CN2CC3(CCS(=O)(=O)C3)C2)ccc1-c1ccc(C(O)(C(F)(F)F)C(F)(F)F)cc1` [Example 24, 2-((2-ethyl-4′-(1,1,1,3,3,3-hexafluoro-2-hydroxypropan-2-yl)-[1,1′-biphenyl]-4-yl)methyl)-6-thia-2-azaspiro[3.4]octane 6,6-dioxide], the IC50 was 50 to 250 nM.

As for `Cc1cc(CN2CC3(CN(Cc4ccncc4)C3)C2)ccc1-c1ccc(C(O)(C(F)(F)F)C(F)(F)F)cc1` [Example 51, 1,1,1,3,3,3-hexafluoro-2-(2′-methyl-4′-((6-(pyridin-4-ylmethyl)-2,6-diazaspiro[3.3]heptan-2-yl)methyl)-[1,1′-biphenyl]-4-yl)propan-2-ol], the IC50 was above 250 nM.

The compound `CCc1cc(CN2CC3(C2)CN(S(C)(=O)=O)C3)ccc1-c1ccc(C(O)(C(F)(F)F)C(F)(F)F)cn1` [Example 63, 2-(6-(2-ethyl-4-((6-(methylsulfonyl)-2,6-diazaspiro[3.3]heptan-2-yl)methyl)phenyl)pyridin-3-yl)-1,1,1,3,3,3-hexafluoropropan-2-ol] registered a half-maximal inhibitory concentration (IC50) of 50 to 250 nM.

With `CCc1cc(CN2CC3(C2)CN(S(C)(=O)=O)C3)c(F)cc1-c1ccc(C(O)(C(F)(F)F)C(F)(F)F)cc1Cl` [Example 83, 2-(2-chloro-2′-ethyl-5′-fluoro-4′-((6-(methylsulfonyl)-2,6-diazaspiro[3.3]heptan-2-yl)methyl)-[1,1′-biphenyl]-4-yl)-1,1,1,3,3,3-hexafluoropropan-2-ol], the IC50 was below 50 nM.

With `CCc1cc(CN2CC3(C2)CN(S(C)(=O)=O)C3)cc(F)c1-c1ccc(C(O)(C(F)(F)F)C(F)(F)F)cc1` [Example 35, 2-(2′-ethyl-6′-fluoro-4′-((6-(methylsulfonyl)-2,6-diazaspiro[3.3]heptan-2-yl)methyl)-[1,1′-biphenyl]-4-yl)-1,1,1,3,3,3-hexafluoropropan-2-ol], the IC50 was below 50 nM.

`CC(C)c1cc(CN2CC3(C2)CN(S(C)(=O)=O)C3)c(F)cc1-c1ccc(C(O)(C(F)(F)F)C(F)(F)F)cc1F` [Example 80, 2-(2,5′-difluoro-2′-isopropyl-4′-((6-(methylsulfonyl)-2,6-diazaspiro[3.3]heptan-2-yl)methyl)-[1,1′-biphenyl]-4-yl)-1,1,1,3,3,3-hexafluoropropan-2-ol] returned an IC50 below 50 nM.

In turn, `CCc1cc(CN2CCC3(CCN(S(C)(=O)=O)C3)C2)ccc1-c1ccc(C(O)(C(F)(F)F)C(F)(F)F)cc1` (centres unmarked) [Example 31, 2-(2′-ethyl-4′-((7-(methylsulfonyl)-2,7-diazaspiro[4.4]nonan-2-yl)methyl)-[1,1′-biphenyl]-4-yl)-1,1,1,3,3,3-hexafluoropropan-2-ol] yielded an IC50 below 50 nM.

The compound `CCc1cc(CN2CC3(C2)C[S+]([O-])C3)ccc1-c1ccc(C(O)(C(F)(F)F)C(F)(F)F)cc1` [Example 27, 6-((2-ethyl-4′-(1,1,1,3,3,3-hexafluoro-2-hydroxypropan-2-yl)-[1,1′-biphenyl]-4-yl)methyl)-2-thia-6-azaspiro[3.3]heptane 2-oxide] registered an IC50 of 50 to 250 nM.

As for `Cc1cc(C(O)(C(F)(F)F)C(F)(F)F)ccc1-c1c(F)cc(CN2CC3(C2)CN(S(C)(=O)=O)C3)c(F)c1C(C)C` [Example 84, 2-(3′,6′-difluoro-2′-isopropyl-2-methyl-4′-((6-(methylsulfonyl)-2,6-diazaspiro[3.3]heptan-2-yl)methyl)-[1,1′-biphenyl]-4-yl)-1,1,1,3,3,3-hexafluoropropan-2-ol], the IC50 is below 50 nM.

In turn, `C=C(C)c1cc(CN2CC3(C2)CN(S(C)(=O)=O)C3)ccc1-c1ccc(C(O)(C(F)(F)F)C(F)(F)F)cc1` [Example 44, 1,1,1,3,3,3-hexafluoro-2-(4′-((6-(methylsulfonyl)-2,6-diazaspiro[3.3]heptan-2-yl)methyl)-2′-(prop-1-en-2-yl)-[1,1′-biphenyl]-4-yl)propan-2-ol] returned an IC50 below 50 nM.

In turn, `CCc1cc(CN2CC3(CSC3)C2)ccc1-c1ccc(C(O)(C(F)(F)F)C(F)(F)F)cc1` [Example 28, 2-(4′-((2-thia-6-azaspiro[3.3]heptan-6-yl)methyl)-2′-ethyl-[1,1′-biphenyl]-4-yl)-1,1,1,3,3,3-hexafluoropropan-2-ol] registered an IC50 above 250 nM.

Compound `CS(=O)(=O)N1CC2(CN(Cc3ccc(-c4ccc(C(O)(C(F)(F)F)C(F)(F)F)cc4)cc3O)C2)C1` [Example 61, 4′-(1,1,1,3,3,3-hexafluoro-2-hydroxypropan-2-yl)-4-((6-(methylsulfonyl)-2,6-diazaspiro[3.3]heptan-2-yl)methyl)-[1,1′-biphenyl]-3-ol] yielded an IC50 of 50 to 250 nM.

The compound `CS(=O)(=O)N1CC2(CN(Cc3cc(F)c(-c4ccc(C(O)(C(F)(F)F)C(F)(F)F)cc4F)c(C4CC4)c3F)C2)C1` [Example 91, 2-(2′-cyclopropyl-2,3′,6′-trifluoro-4′-((6-(methylsulfonyl)-2,6-diazaspiro[3.3]heptan-2-yl)methyl)-[1,1′-biphenyl]-4-yl)-1,1,1,3,3,3-hexafluoropropan-2-ol] returned a concentration for half-maximal inhibition (IC50) below 50 nM.

Turning to `CC(C)c1c(F)c(CN2CC3(C2)CN(S(C)(=O)=O)C3)cc(F)c1-c1ccc(C(O)(C(F)(F)F)C(F)(F)F)cc1Cl` [Example 87, 2-(2-chloro-3′,6′-difluoro-2′-isopropyl-4′-((6-(methylsulfonyl)-2,6-diazaspiro[3.3]heptan-2-yl)methyl)-[1,1′-biphenyl]-4-yl)-1,1,1,3,3,3-hexafluoropropan-2-ol], the concentration for half-maximal inhibition (IC50) was below 50 nM.

As for `CC(C)c1c(-c2ccc(C(O)(C(F)(F)F)C(F)(F)F)cc2)cc(F)c(CN2CC3(C2)CN(S(C)(=O)=O)C3)c1F` [Example 8, 2-(3′,5′-difluoro-2′-isopropyl-4′-((6-(methylsulfonyl)-2,6-diazaspiro[3.3]heptan-2-yl)methyl)-[1,1′-biphenyl]-4-yl)-1,1,1,3,3,3-hexafluoropropan-2-ol], the IC50 was below 50 nM.

`Cc1cc(C(O)(C(F)(F)F)C(F)(F)F)ccc1-c1cccc(N2CC3(C2)CN(S(C)(=O)=O)C3)n1` [Example 67, 1,1,1,3,3,3-hexafluoro-2-(3-methyl-4-(6-(6-(methylsulfonyl)-2,6-diazaspiro[3.3]heptan-2-yl)pyridin-2-yl)phenyl)propan-2-ol] returned an IC50 above 250 nM.

In turn, `Cc1cc(C(O)(C(F)(F)F)C(F)(F)F)ccc1-c1cc(F)c(CN2CC3(C2)CN(S(C)(=O)=O)C3)cc1C(C)C` [Example 79, 1,1,1,3,3,3-hexafluoro-2-(5′-fluoro-2′-isopropyl-2-methyl-4′-((6-(methylsulfonyl)-2,6-diazaspiro[3.3]heptan-2-yl)methyl)-[1,1′-biphenyl]-4-yl)propan-2-ol] displayed an IC50 below 50 nM.

With `CCc1cc(CN2CC3(CCN(S(C)(=O)=O)CC3)C2)ccc1-c1ccc(C(O)(C(F)(F)F)C(F)(F)F)cc1` [Example 33, 2-(2′-ethyl-4′-((7-(methylsulfonyl)-2,7-diazaspiro[3.5]nonan-2-yl)methyl)-[1,1′-biphenyl]-4-yl)-1,1,1,3,3,3-hexafluoropropan-2-ol], the IC50 lay in the range of 50 to 250 nM.

The compound `CCc1cc(CN2CCCC3(C2)CN(S(C)(=O)=O)C3)ccc1-c1ccc(C(O)(C(F)(F)F)C(F)(F)F)cc1` [Example 5, 2-(2′-ethyl-4′-((2-(methylsulfonyl)-2,6-diazaspiro[3.5]nonan-6-yl)methyl)-[1,1′-biphenyl]-4-yl)-1,1,1,3,3,3-hexafluoropropan-2-ol] gave an IC50 below 50 nM.

Regarding `CCc1cc(CN2CC3(C2)CN(C(=O)OC)C3)ccc1-c1ccc(C(O)(C(F)(F)F)C(F)(F)F)cc1` [Example 40, methyl 6-((2-ethyl-4′-(1,1,1,3,3,3-hexafluoro-2-hydroxypropan-2-yl)-[1,1′-biphenyl]-4-yl)methyl)-2,6-diazaspiro[3.3]heptane-2-carboxylate], the IC50 fell in the range of 50 to 250 nM.
